In patent publication US12285428B2 (IMBRIA PHARMACEUTICALS, INC., priority 2021, dated 2025):

Columns and labels:
[1] = FIH study, all parts combined: plasma PK; assay type: in vivo, human; conditions: all blood samples of subjects that received IMB-1018972
Excerpt: The study started with the SAD part.

healthy subjects [2] = experiment: FIH study, SAD part (and integrated FE arm): safety and tolerability
Experimental: In Groups A1, A2, A3, and A4, subjects received a single oral dose of an IR formulation of IMB-1018972 or placebo under fasted conditions (an overnight fast of at least 10 hours). […] Each subject participated in only 1 group during the study.
(§1) AEs were recorded from (first) admission until completion of the follow-up visit. Any clinically significant observations in results of clinical laboratory, 12-lead ECGs, vital signs, or physical examinations were recorded as AEs.
(§2) A treatment-emergent AE (TEAE) was defined as any event not present prior to (the first) administration of the study drug or any event already present that worsened in either severity or frequency following exposure to the study drug.
(§3) At several time points before and after drug administration, subjects were asked nonleading questions to determine the occurrence of AEs. Subjects were asked in general terms about any AEs at regular intervals during the study. In addition, all AEs reported spontaneously during the course of the study were recorded. Details included description of the event, date and time of onset, date and time of end, total duration, severity, relationship to study drug, intervention, seriousness, and outcome. All answers were interpreted by the Investigator and were recorded in the eCRF. All AEs were classified according to the Medical Dictionary for Regulatory Activities (MedDRA; Version 22.0) for AEs.
(§4) The severity of the AEs was rated as mild, moderate, or severe; the relationship between the AEs and the study drug was indicated as none, unlikely, possibly, likely, or definitely. Adverse events assessed as possibly, likely, or definitely were considered related to the study drug; AEs assessed as none or unlikely were considered not related to the study drug.
(§5) The following parameters were measured: • Clinical chemistry (serum quantitatively): total bilirubin, alkaline phosphatase, gamma glutamyl transferase, aspartate aminotransferase (AST), alanine aminotransferase (ALT), lactate dehydrogenase, creatinine, urea, total protein, glucose, inorganic phosphate, sodium, potassium, • calcium, and chloride • Hematology (blood quantitatively): leukocytes, erythrocytes, hemoglobin, hematocrit, thrombocytes, partial automated differentiation (lymphocytes, monocytes, eosinophils, basophils, and neutrophils), mean corpuscular volume, mean corpuscular hemoglobin, and mean corpuscular hemoglobin concentration • Coagulation (blood quantitatively): prothrombin time (reported in seconds and as international normalized ratio), activated partial thromboplastin time, and fibrinogen • Urinalysis (urine qualitatively): hemoglobin, urobilinogen, ketones, glucose, and protein • Serology: HBsAg, anti-HCV, and anti-HIV 1 and 2 • Drug and alcohol screen: opiates, methadone, cocaine, amphetamines (including ecstasy), cannabinoids, barbiturates, benzodiazepines, tricyclic antidepressants, and alcohol • Pregnancy test (females only): (3-human chorionic gonadotropin in serum
Systolic and diastolic blood pressure and pulse were recorded after the subject had been resting for at least 5 minutes in the supine position. These assessments were made using an automated device. Body temperature and respiratory rate were measured subsequently.
The ECG was recorded using an ECG machine equipped with computer-based interval measurements (with no/minimal disturbance by procedures). The following ECG parameters were recorded: heart rate, PR-interval, QRS-duration, QT-interval, QTcF-interval, and the interpretation of the ECG profile by the Investigator.
In the SAD part (not in the second period of the FE group A4, and not in Group A5), a 12-lead ECG was recorded continuously by telemetry from 2 hours before to 24 hours after drug administration on Day 1.

[3] = tested on: patients with Type 2 Diabetes mellitus and obesity; experiment: Open label Phase 2 study IMB101-005 DICE: spontaneously reported renal and urinary findings; assay type: in vivo, human; conditions: 200 mg MR BID for 8 weeks (N=22)
Experimental: In the early Phase 1 study in healthy volunteers and early Phase 2 studies in patients, there were instances of increased urine volume and increased urinary frequency spontaneously reported. • In the first-in-man study, CIMB8972-101, healthy volunteers were dosed with single doses of IMB-1018972 at 50 mg or 200 mg of the modified release (MR) formulation. Two of 12 subjects [2/12] (16.7%) reported 5 events of pollakiuria at both doses. • In an open label Phase 2 study (IMB101-005 DICE) treating patients with Type 2 Diabetes mellitus and obesity for 8 weeks with 200 mg MR BID, two of 22 patients [2/22] (9.1%) spontaneously reported renal and urinary findings. One patient reported pollakiuria and one patient reported increased nocturnal urinary frequency. • In a blinded, randomized, controlled, Phase 2 study (IMB101-006 […]) treating patients with stable angina for 8 weeks with 200 mg MR BID, one of 22 patients [1/22] (4.5%) spontaneously reported renal and urinary findings. One patient reported polyuria.

healthy subjects [4] = experiment: FIH study, single-dose MR part: safety and tolerability; assay type: in vivo, human; conditions: for ALT, Subject 505: normal range 0-68 IU/L
Experimental: The subjects received a single oral dose of 1 of 4 MR formulations of IMB-1018972 under fasted conditions (an overnight fast of at least 10 hours) on Days 1, 4, 7, and 10 in a fixed order that was the same for all subjects. The MR formulation of IMB-1018972 to be administered on Day 13 under fed conditions was 1 of the 4 MR formulations administered on Days 1, 4, 7, and 10 under fasted conditions. The formulation chosen for administration on Day 13 was the 200 mg 8-hour MR formulation as determined by the Sponsor based on the available safety, tolerability, and PK results of the 4 MR formulations.
as §1, §2, §3, §4, §5

[5] = 150 mg IMB-1018972 fasted (fasted-fed group)
[6] = 150 mg IMB-1018972 fed (fasted-fed group)
[7] = SAD part, all IMB-1018972 doses (N=24)
[8] = 50 mg 4-hour MR formulation of IMB-1018972, fasted
[9] = 200 mg 4-hour MR formulation of IMB-1018972, fasted

COc1ccc(CN2CCN(CCOC(=O)c3cccnc3)CC2)c(OC)c1OC [IMB-1018972, 2-[4-[(2,3,4-trimethoxyphenyl)methyl]piperazin-1-yl]ethyl pyridine-3-carboxylate]
IMB-1018972 in plasma [1]: could be measured in only few plasma samples
Number of TEAEs (healthy subjects [2]; 50 mg IMB-1018972 fasted): 3
Subjects reporting TEAEs (healthy subjects [2]; 50 mg IMB-1018972 fasted): 50.0%
Number of TEAEs (healthy subjects [2]; 150 mg IMB-1018972 fasted): 5
Subjects reporting TEAEs (healthy subjects [2]; 150 mg IMB-1018972 fasted): 50.0%
Number of TEAEs (healthy subjects [2]; [5]): 17
Subjects reporting TEAEs (healthy subjects [2]; [5]): 66.7%
Number of TEAEs (healthy subjects [2]; [6]): 4
Subjects reporting TEAEs (healthy subjects [2]; [6]): 20%
Number of TEAEs (healthy subjects [2]; 400 mg IMB-1018972 fasted): 16
Subjects reporting TEAEs (healthy subjects [2]; 400 mg IMB-1018972 fasted): 100%
Effect of dosing under fed conditions on number and incidence of TEAEs (healthy subjects [2]; FE arm of the SAD part, 150 mg): appeared to attenuate
Severe TEAEs (healthy subjects [2]; SAD part): No severe TEAEs
Number of TEAEs of flushing (healthy subjects [2]; SAD part, IMB-1018972): 6
Number of TEAEs of flushing of mild severity (healthy subjects [2]; SAD part, IMB-1018972): 1
Number of TEAEs of flushing of moderate severity (healthy subjects [2]; SAD part, IMB-1018972): 5
Number of TEAEs considered related to the study drug (healthy subjects [2]; SAD part, IMB-1018972 (N=24)): 21
Number of TEAEs, SOC gastrointestinal disorders (healthy subjects [2]; SAD part, IMB-1018972 (N=24)): 9
Number of TEAEs, SOC general disorders and administration site conditions (healthy subjects [2]; SAD part, IMB-1018972 (N=24)): 9
Number of TEAEs, SOC nervous system disorders (healthy subjects [2]; SAD part, IMB-1018972 (N=24)): 9
Number of TEAEs, SOC skin and subcutaneous tissue disorders (healthy subjects [2]; SAD part, IMB-1018972 (N=24)): 4
Number of TEAEs, SOC vascular disorders (healthy subjects [2]; SAD part, IMB-1018972 (N=24)): 7
Number of drug-related TEAEs, nervous system disorders (healthy subjects [2]; SAD part, IMB-1018972 (N=24)): 5
Number of drug-related TEAEs, vascular disorders (flushing) (healthy subjects [2]; SAD part, IMB-1018972 (N=24)): 6
Subjects reporting TEAEs considered related to the study drug (healthy subjects [2]; SAD part, IMB-1018972 (N=24)): 29.2%
Subjects reporting TEAEs, SOC gastrointestinal disorders (healthy subjects [2]; SAD part, IMB-1018972 (N=24)): 16.7%
Subjects reporting TEAEs, SOC general disorders and administration site conditions (healthy subjects [2]; SAD part, IMB-1018972 (N=24)): 20.8%
Subjects reporting TEAEs, SOC nervous system disorders (healthy subjects [2]; SAD part, IMB-1018972 (N=24)): 29.2%
Subjects reporting TEAEs, SOC skin and subcutaneous tissue disorders (healthy subjects [2]; SAD part, IMB-1018972 (N=24)): 16.7%
Subjects reporting TEAEs, SOC vascular disorders (healthy subjects [2]; SAD part, IMB-1018972 (N=24)): 29.2%
Subjects reporting drug-related TEAEs, nervous system disorders (healthy subjects [2]; SAD part, IMB-1018972 (N=24)): 16.7%
Subjects reporting drug-related TEAEs, vascular disorders (flushing) (healthy subjects [2]; SAD part, IMB-1018972 (N=24)): 25%
Number of TEAEs (healthy subjects [2]; [7]): 45
Subjects reporting TEAEs (healthy subjects [2]; [7]): 66.7%
Number of TEAEs of moderate severity (healthy subjects [2]; SAD part, of 48 TEAEs with IMB-1018972 or placebo): 11
Drug-related TEAEs (healthy subjects [2]; following 50 mg and 150 mg (fasted only group) IMB-1018972): No drug-related TEAEs
Subjects who reported flushing (healthy subjects [2]; single 150 mg IMB-1018972, fasted, FE arm): 2 subjects
Subjects who reported flushing (healthy subjects [2]; single 400 mg IMB-1018972, fasted): Four
Tolerability (healthy subjects [2]; single oral IMB-1018972 50, 150, 400 mg fasted and 150 mg fed): well tolerated
Patients reporting increased nocturnal urinary frequency [3]: one
Patients reporting pollakiuria [3]: One
Patients spontaneously reporting renal and urinary findings [3]: 9.1%
Number of TEAEs (healthy subjects [4]; [8]): 9
Subjects reporting TEAEs (healthy subjects [4]; [8]): 50%
Tolerability (healthy subjects [4]; 50 mg and 200 mg MR formulations (4-hour, 8-hour) fasted, 200 mg 8-hour MR fed, except 1 subject with elevated ALT): well tolerated
Number of TEAEs (healthy subjects [4]; [9]): 11
Subjects reporting TEAEs (healthy subjects [4]; [9]): 66.7%
ALT, Subject 505 (healthy subjects [4]; Day 2, MR doses on Days 1, 4, 7, 10): 31 IU/L
ALT, Subject 505 (healthy subjects [4]; Day 5): 72 IU/L
ALT, Subject 505 (healthy subjects [4]; Day 8): 97 IU/L
ALT, Subject 505 (healthy subjects [4]; Day 11 (highest)): 149 IU/L
ALT, Subject 505 (healthy subjects [4]; Day 14): 102 IU/L
ALT, Subject 505 (healthy subjects [4]; Day 16): 84 IU/L
ALT, Subject 505 (healthy subjects [4]; follow-up Day 24): 42 IU/L
Number of drug-related TEAEs (events) of pollakiuria (renal and urinary disorders) (healthy subjects [4]; single doses of 50 mg or 200 mg MR IMB-1018972 (N=12)): 5
